Reference: patent publication US12084423B2, “Piperlongumine analogues and uses thereof” (BioVentures, LLC, priority 2018, dated 2024)

Tests used:
normal WI-38 cells = test: Cell viability of normal WI-38 cells after 72 hours of compound treatment; format: cell-based; settings: Homo sapiens, cell viability at 72 hours post-treatment
Description: (§1) Normal WI-38 cells and IR-induced senescent cells were incubated with increasing concentrations of compounds of Formula (I). At 72 hours post-treatment cell viability was measured and ED50was calculated. Table 1 depicts the ED50 values of the compounds of Formula (I) against normal and IR-induced senescent cells.

[1] = tested on: IR-induced senescent cells (IR-SC WI-38); test: Cell viability of IR-induced senescent WI-38 cells after 72 hours of compound treatment; format: cell-based; settings: for EC50: Homo sapiens, IR-induced senescent WI-38 cells, cell viability at 72 hours post-treatment; for selective killing of senescent WI38 cells over normal WI38 cells: ionizing radiation (IR, 10 Gy) induced senescent vs normal WI38 cells, viability at 72 hours, percent of control
Description: as §1

SMILES | EC50 (normal WI-38 cells) [µM] | EC50 [1] [µM] | selective killing of senescent WI38 cells over normal WI38 cells [1]
COc1cc(/C=C/C(=O)N2CCC=C(Cl)C2=O)cc(OC)c1OC [No 2] | 5.3 | 0.65 | 
COc1cc(/C=C/C(=O)N2CCC=C(F)C2=O)cc(OC)c1OC [No 1] | 12.1 | 15.3 | 
COc1cc(C(Cl)=CC(=O)N2CCCC=CC2=O)cc(OC)c1OC [XZ-12089, (E)-β-chloro-1-(β-(3,4,5-trimethoxyphenyl)acryloyl)-1,5,6,7-tetrahydro-2H-azepin-2-one] |  |  | selectively kills senescent WI38 cells over normal WI38 cells
COc1ccc(/C=C/C(=O)N2CCC=C(Cl)C2=O)cc1 [No 8] | 0.35 | 0.51 | 
COc1cc(/C=C/C(=O)N2CCC=C(I)C2=O)cc(OC)c1OC [No 4] | 18.3 | 2.3 | 
O=C1C(Cl)=CCCN1S(=O)(=O)/C=C/c1ccccc1 [No 15] | 8.8 | 0.94 | 
COc1cc(/C=C/C(=O)N2CCCC=C(Cl)C2=O)cc(OC)c1OC [No 5] | 1.7 | 0.45 | 
O=C1C(Br)=CCCN1S(=O)(=O)/C=C/c1ccccc1 [No 16] | 28.1 | 2.8 | 
COc1cc(/C=C/C(=O)N2CCCC=C(Br)C2=O)cc(OC)c1OC [No 6] | 3.6 | 0.56 | 
COc1cc(/C=C/C(=O)N2OCC=CC2=O)cc(OC)c1OC [XZ-12037, (E)-2-(β-(3,4,5-trimethoxyphenyl)acryloyl)-2H-1,2-oxazin-3(6H)-one] |  |  | selectively kills senescent WI38 cells over normal WI38 cells
COc1cc(/C=C/C(=O)N2OCC=CC2=O)cc(OC)c1OC [No 7] | 47.7 | 8 | 
O=C1C(Br)=CCCCN1C(=O)c1cc2ccccc2oc1=O [No 14] | 5 | 4 | 
COc1ccc(/C=C/C(=O)N2CCCC=C(Cl)C2=O)cc1 [No 10] | 1.5 | 0.16 | 
COc1ccc(/C=C/C(=O)N2CCC=C(Br)C2=O)cc1 [No 9] | 1.1 | 0.63 | 
COc1ccc(/C=C/C(=O)N2CCCC=C(Br)C2=O)cc1 [No 11] | 5.8 | 1.3 | 
COc1cc(/C=C/C(=O)N2CCC=C(Br)C2=O)cc(OC)c1OC [No 3] | 5.4 | 0.52 | 
C=CC(=O)N1OCC=CC1=O [No 12] | 16.3 | 5.7 | 
O=C1C(Br)=CCCN1C(=O)c1cc2ccccc2oc1=O [No 13] | 6.2 | 1.7 | 
